Source: ChEMBL document CHEMBL4680369, “Synthesis of HDAC Inhibitor Libraries via Microscale Workflow” (ACS Med Chem Lett, 2021)

How the values were obtained:
Histone deacetylase 1 [1] = biological target: T1, Histone deacetylase 1 (Homo sapiens, UniProt Q13547); test: Inhibition of HDAC1 (unknown origin) using compound purified by microgram-scale HPLC work-flow
Histone deacetylase 2 [2] = biological target: T2, Histone deacetylase 2 (Homo sapiens, UniProt Q92769); test: Inhibition of HDAC2 (unknown origin) using compound purified by microgram-scale HPLC work-flow
T2 sequence (Q92769 whole entry): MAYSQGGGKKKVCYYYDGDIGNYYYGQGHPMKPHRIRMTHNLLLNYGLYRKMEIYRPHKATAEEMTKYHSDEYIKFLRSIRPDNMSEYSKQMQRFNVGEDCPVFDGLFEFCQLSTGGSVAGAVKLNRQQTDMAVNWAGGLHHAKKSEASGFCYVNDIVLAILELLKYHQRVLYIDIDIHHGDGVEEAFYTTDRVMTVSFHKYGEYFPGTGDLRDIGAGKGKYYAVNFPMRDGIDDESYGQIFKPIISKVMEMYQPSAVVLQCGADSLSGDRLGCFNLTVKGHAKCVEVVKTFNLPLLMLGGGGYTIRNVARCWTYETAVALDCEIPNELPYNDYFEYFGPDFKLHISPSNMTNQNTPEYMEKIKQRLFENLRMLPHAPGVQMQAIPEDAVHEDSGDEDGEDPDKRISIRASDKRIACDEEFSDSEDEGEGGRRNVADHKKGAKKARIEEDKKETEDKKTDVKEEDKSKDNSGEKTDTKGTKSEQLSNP

Histone deacetylase 1 [3] = biological target: T1, Histone deacetylase 1; test: Inhibition of HDAC1 (unknown origin) using compound purified by traditional preparative HPLC work-flow
Histone deacetylase 2 [4] = biological target: T2, Histone deacetylase 2; test: Inhibition of HDAC2 (unknown origin) using compound purified by traditional preparative HPLC work-flow

T1 sequence (Q13547 whole entry): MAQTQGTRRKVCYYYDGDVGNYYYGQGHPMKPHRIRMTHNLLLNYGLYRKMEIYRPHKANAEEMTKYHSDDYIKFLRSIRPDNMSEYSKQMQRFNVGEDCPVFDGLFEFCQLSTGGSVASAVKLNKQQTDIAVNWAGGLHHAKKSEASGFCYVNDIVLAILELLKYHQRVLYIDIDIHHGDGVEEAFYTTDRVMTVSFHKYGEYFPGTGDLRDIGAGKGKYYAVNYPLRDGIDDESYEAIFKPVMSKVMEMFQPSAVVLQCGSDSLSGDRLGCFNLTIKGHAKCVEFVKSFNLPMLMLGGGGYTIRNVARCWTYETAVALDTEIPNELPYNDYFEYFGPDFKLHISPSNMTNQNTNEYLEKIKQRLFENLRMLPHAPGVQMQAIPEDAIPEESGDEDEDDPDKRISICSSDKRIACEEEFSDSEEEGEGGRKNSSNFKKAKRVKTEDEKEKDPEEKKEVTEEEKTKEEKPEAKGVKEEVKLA

SMILES	IC50 (Histone deacetylase 1 [1])	IC50 (Histone deacetylase 2 [2])	IC50 (Histone deacetylase 1 [3])	IC50 (Histone deacetylase 2 [4])
CCC(=O)CCCCC[C@H](NC(=O)[C@H]1CC12CCN(CC)CC2)c1ncc(C2=CCC(C)N=C2OC)[nH]1 (some centres not stated)	0.014 µM	0.0014 µM	–	–
CCC(=O)CCCCC[C@H](NC(=O)[C@H]1CC12CCN(CC)CC2)c1ncc(-c2c(OC)ccc(F)c2F)[nH]1	0.609 µM	1.55 µM	–	–
CCC(=O)CCCCC[C@H](NC(=O)[C@H]1CC12CCN(C)CC2)c1ncc(-c2cnc(-n3cc(C)cn3)nc2)[nH]1	0.102 µM	0.491 µM	–	–
CCC(=O)CCCCC[C@H](NC(=O)[C@H]1CC12CCN(C)CC2)c1ncc(-c2ccc(-c3cccnc3)nc2)[nH]1	0.0026 µM	0.014 µM	0.0065 µM	0.03 µM
CCC(=O)CCCCC[C@H](NC(=O)[C@H]1CC12CCN(C)CC2)c1ncc(-c2ccc(C(=O)NC3CCOC3)cc2)[nH]1 (some centres not stated)	0.011 µM	0.07 µM	0.0091 µM	0.054 µM
CCOc1ncc(-c2cnc([C@H](CCCCCC(=O)CC)NC(=O)[C@H]3CC34CCN(C)CC4)[nH]2)cn1	0.1 µM	0.583 µM	0.143 µM	0.749 µM
CCC(=O)CCCCC[C@H](NC(=O)[C@H]1CC12CCN(CC)CC2)c1ncc(-c2cc(C(C)C)c(F)cc2OC)[nH]1	0.063 µM	0.279 µM	–	–
CCC(=O)CCCCC[C@H](NC(=O)[C@H]1CC12CCN(C)CC2)c1ncc(-c2ccc(C)nc2OC)[nH]1	0.0032 µM	0.018 µM	0.0037 µM	0.019 µM
CCC(=O)CCCCC[C@H](NC(=O)[C@H]1CC12CCN(CC)CC2)c1ncc(-c2cccc(C(F)(F)F)c2OC)[nH]1	0.013 µM	0.063 µM	–	–
CCC(=O)CCCCC[C@H](NC(=O)[C@H]1CC12CCN(C)CC2)c1ncc(-c2cnc3cccnc3c2)[nH]1	0.014 µM	0.092 µM	0.028 µM	0.161 µM
CCC(=O)CCCCC[C@H](NC(=O)[C@H]1CC12CCN(C)CC2)c1ncc(-c2ccc3[nH]c4ccccc4c3c2)[nH]1	–	–	–	0.0011 µM
CCC(=O)CCCCC[C@H](NC(=O)[C@H]1CC12CCN(C)CC2)c1ncc(-c2ccnc(N3CCOCC3)c2F)[nH]1	0.022 µM	0.133 µM	0.036 µM	0.179 µM
CCOC(=O)c1cc2cc(OC)c(-c3cnc([C@H](CCCCCC(=O)CC)NC(=O)[C@H]4CC45CCN(CC)CC5)[nH]3)cc2o1	0.0011 µM	0.0091 µM	–	–
CCC(=O)CCCCC[C@H](NC(=O)[C@H]1CC12CCN(CC)CC2)c1ncc(-c2cc([N+](=O)[O-])ccc2OC)[nH]1	0.0078 µM	0.043 µM	–	–
CCC(=O)CCCCC[C@H](NC(=O)[C@H]1CC12CCN(C)CC2)c1ncc(-c2ccn3ncnc3c2)[nH]1	0.044 µM	0.249 µM	0.07 µM	0.35 µM
CCC(=O)CCCCC[C@H](NC(=O)[C@H]1CC12CCN(C)CC2)c1ncc(-c2ccc(-n3nc(C)cc3C)cc2)[nH]1	0.012 µM	0.07 µM	0.014 µM	0.064 µM
CCC(=O)CCCCC[C@H](NC(=O)[C@H]1CC12CCN(CC)CC2)c1ncc(-c2cc(C#N)ccc2OC)[nH]1	0.012 µM	0.062 µM	–	–
CCC(=O)CCCCC[C@H](NC(=O)[C@H]1CC12CCN(CC)CC2)c1ncc(-c2c(F)cccc2OC)[nH]1	0.072 µM	0.37 µM	–	–
CCOC(=O)C1CC1c1ccc(OC)c(-c2cnc([C@H](CCCCCC(=O)CC)NC(=O)[C@H]3CC34CCN(CC)CC4)[nH]2)c1 (some centres not stated)	0.0069 µM	0.039 µM	–	–
CCC(=O)CCCCC[C@H](NC(=O)[C@H]1CC12CCN(C)CC2)c1ncc(C2=CC(=O)N(C)CC2)[nH]1	0.302 µM	1.66 µM	0.343 µM	1.59 µM
CCC(=O)CCCCC[C@H](NC(=O)[C@H]1CC12CCN(CC)CC2)c1ncc(-c2cc(C(=O)OC)c(F)cc2OC)[nH]1	0.031 µM	0.154 µM	–	–
CCC(=O)CCCCC[C@H](NC(=O)[C@H]1CC12CCN(CC)CC2)c1ncc(-c2ccc(C(=O)Nc3cc(C(F)(F)F)ccn3)cc2OC)[nH]1	0.119 µM	0.087 µM	–	–
CCC(=O)CCCCC[C@H](NC(=O)[C@H]1CC12CCN(CC)CC2)c1ncc(-c2cc(C(F)(F)F)ccc2OC)[nH]1	0.0018 µM	0.016 µM	–	–
CCC(=O)CCCCC[C@H](NC(=O)[C@H]1CC12CCN(CC)CC2)c1ncc(-c2c(F)cc(C(=O)Nc3cc(C(F)(F)F)ccn3)cc2OC)[nH]1	0.022 µM	0.32 µM	–	–
CCC(=O)CCCCC[C@H](NC(=O)[C@H]1CC12CCN(C)CC2)c1ncc(-c2cn(C)c3ccccc23)[nH]1	–	–	0.0005 µM	0.0029 µM
